The values that follow come from the Kinase Knowledgebase extract (Sharma et al. 2016).

Structures are written as SMILES.

The target in the test is CDK2 (human) (UniProt P24941). The experiment in a line: Cell-Based Assay.

As for `O=[N+]([O-])c1ccc2c(c1)C(c1ccccc1Cl)=Nc1c(n[nH]c1-c1cncc3ccccc13)N2`, the IC50 (hct 116) fell in the range of 10 to 30 µM.
With `O=C(c1ccc2c(c1)C(c1ccccc1F)=Nc1c[nH]nc1N2)N1CCOCC1`, the IC50 by setting is: (hct 116) 10 to 30 µM; (sw480) 0.01 to 1 µM.
Regarding `Cc1[nH]nc2c1N=C(c1ccccc1Cl)c1cc(N)ccc1N2`, the IC50 was 0.01 to 1 µM (mda-mb-435) and 0.01 to 1 µM (sw480).
`Cc1[nH]nc2c1N=C(c1ccccc1F)c1cc(C#N)ccc1N2` yielded an IC50 (hct 116) of 1.1 to 9.99 µM, an IC50 (mda-mb-435) of 0.01 to 1 µM and an IC50 (sw480) of 0.01 to 1 µM.
As for `Cc1[nH]nc2c1N=C(c1ccccc1)c1cc(Cl)ccc1N2`, the IC50 by setting is: (mda-mb-435) 1.1 to 9.99 µM; (sw480) 1.1 to 9.99 µM.
Consider `N#Cc1ccc2c(c1)C(c1ccccc1F)=Nc1c[nH]nc1N2`, for which the IC50 is, setting by setting: (hct 116) 1.1 to 9.99 µM; (mda-mb-435) 1.1 to 9.99 µM; (sw480) 1.1 to 9.99 µM.
`O=[N+]([O-])c1ccc2c(c1)C(c1ccccc1)=Nc1c[nH]nc1N2` returned an IC50 (hct 116) of 10 to 30 µM.
In the case of `Cc1[nH]nc2c1N=C(c1ccccc1Cl)c1cc(NS(=O)(=O)N(C)C)ccc1N2`, the IC50 by setting is: (mda-mb-435) 0.01 to 1 µM; (sw480) 1.1 to 9.99 µM.
Taken in the same sequence, the figures for `C=CC(=O)Nc1ccc2c(c1)C(c1ccccc1Cl)=Nc1c(n[nH]c1C)N2` were 0.01 to 1 µM and 0.01 to 1 µM.
Take `NC(=O)c1[nH]nc2c1N=C(c1ccccc1Cl)c1cc([N+](=O)[O-])ccc1N2`: under “mda-mb-435”, the IC50 fell in the range of 10 to 30 µM.
For `O=C(NCCO)c1ccc2c(c1)C(c1ccccc1F)=Nc1c[nH]nc1N2`, the IC50 (hct 116) is 10 to 30 µM.
On to `Cc1[nH]nc2c1N=C(c1ccccc1F)c1cc(C(=O)NCCN3CCOCC3)ccc1N2`, for which the IC50 fell in the range of 1.1 to 9.99 µM (mda-mb-435) and 0.01 to 1 µM (sw480).
Regarding `CSc1ccc(-c2[nH]nc3c2N=C(c2ccccc2Cl)c2cc([N+](=O)[O-])ccc2N3)cc1`, the IC50 (hct 116) was 10 to 30 µM.
For `NNC(=O)c1[nH]nc2c1N=C(c1ccccc1Cl)c1cc([N+](=O)[O-])ccc1N2`, the IC50 runs as follows: (hct 116) 1.1 to 9.99 µM; (sw480) 10 to 30 µM.
As to `O=[N+]([O-])c1ccc2c(c1)C(c1ccccc1Cl)=Nc1c(n[nH]c1-c1cccc3c1OCO3)N2`, under “hct 116”, the IC50 is 10 to 30 µM.
In the case of `Cc1[nH]nc2c1N=C(c1ccccc1F)c1ccccc1N2`, the IC50 was in the range of 1.1 to 9.99 µM (mda-mb-435) and 0.01 to 1 µM (sw480).
Taken in the same sequence, the figures for `Cc1[nH]nc2c1N=C(c1ccccc1)c1cc([N+](=O)[O-])ccc1N2` were 0.01 to 1 µM and 0.01 to 1 µM.
Consider `COCc1[nH]nc2c1N=C(c1ccccc1Cl)c1cc([N+](=O)[O-])ccc1N2`, for which the IC50 (mda-mb-435) fell in the range of 1.1 to 9.99 µM.
For the compound `Cc1[nH]nc2c1N=C(c1ccccc1F)c1cc(C(=O)NCCO)ccc1N2`, the concentration for half-maximal inhibition (IC50) fell in the range of 1.1 to 9.99 µM (mda-mb-435) and 0.01 to 1 µM (sw480).
As to `O=[N+]([O-])c1ccc2c(c1)C(c1ccccc1Cl)=Nc1c(n[nH]c1-c1cccnc1)N2`, the IC50 by setting is: (hct 116) 10 to 30 µM; (sw480) 10 to 30 µM.
In the case of `N#Cc1[nH]nc2c1N=C(c1ccccc1Cl)c1cc([N+](=O)[O-])ccc1N2`, where the note is “mda-mb-435”, the IC50 was 10 to 30 µM.
Regarding `O=[N+]([O-])c1ccc2c(c1)C(c1ccccc1Cl)=Nc1c(n[nH]c1CO)N2`, the IC50 runs as follows: (mda-mb-435) 0.01 to 1 µM; (sw480) 0.01 to 1 µM.
For the compound `O=[N+]([O-])c1ccc2c(c1)C(c1ccccc1Cl)=Nc1c(n[nH]c1-c1nccs1)N2`, for the setting “mda-mb-435”, the IC50 fell in the range of 10 to 30 µM.
With `Cc1[nH]nc2c1N=C(c1ccccc1F)c1cc(Cl)ccc1N2`, the IC50 (sw480) was in the range of 1.1 to 9.99 µM.
Regarding `N#Cc1ccc2c(c1)C(c1ccccc1F)=Nc1c(n[nH]c1CO)N2`, the IC50 reads like this: (mda-mb-435) 0.01 to 1 µM; (sw480) 0.01 to 1 µM.
Regarding `CC(C)c1[nH]nc2c1N=C(c1ccccc1Cl)c1cc([N+](=O)[O-])ccc1N2`, the IC50 is, setting by setting: (hct 116) 1.1 to 9.99 µM; (mda-mb-435) 0.01 to 1 µM; (sw480) 0.01 to 1 µM.
As for `Cc1[nH]nc2c1N=C(c1ccccc1F)c1cc(C(N)=O)ccc1N2`, the IC50 (sw480) is 0.01 to 1 µM.
Compound `O=[N+]([O-])c1ccc2c(c1)C(c1ccccc1Cl)=Nc1c(n[nH]c1C(F)(F)F)N2` returned an IC50 (mda-mb-435) of 1.1 to 9.99 µM.
Regarding `O=[N+]([O-])c1ccc2c(c1)C(c1ccccc1Cl)=Nc1c(n[nH]c1-c1ccc[nH]1)N2`, the IC50 (hct 116) lay in the range of 1.1 to 9.99 µM and the IC50 (sw480) was 1.1 to 9.99 µM.
For `NC(=O)c1ccc2c(c1)C(c1ccccc1F)=Nc1c[nH]nc1N2`, the IC50 by setting is: (hct 116) 1.1 to 9.99 µM; (sw480) 1.1 to 9.99 µM.
With `O=[N+]([O-])c1ccc2c(c1)C(c1ccccc1Cl)=Nc1c(n[nH]c1-c1ccco1)N2`, the IC50 lay in the range of 10 to 30 µM (hct 116) and 10 to 30 µM (sw480).
As for `Cc1[nH]nc2c1N=C(c1ccccc1Cl)c1cc(Cl)ccc1N2`, the concentration for half-maximal inhibition (IC50) reads like this: (mda-mb-435) 1.1 to 9.99 µM; (sw480) 1.1 to 9.99 µM.
As to `Cc1[nH]nc2c1N=C(c1ccccc1F)c1cc([N+](=O)[O-])ccc1N2`, the IC50 runs as follows: (mda-mb-435) 0.01 to 1 µM; (sw480) 0.01 to 1 µM.
Take `Cc1[nH]nc2c1N=C(c1ccccc1F)c1cc(I)ccc1N2`: the IC50 (sw480) fell in the range of 1.1 to 9.99 µM.
Under “mda-mb-435”, `O=Cc1[nH]nc2c1N=C(c1ccccc1Cl)c1cc([N+](=O)[O-])ccc1N2` yielded an IC50 of 0.01 to 1 µM.
Consider `CC(=O)Nc1ccc2c(c1)C(c1ccccc1Cl)=Nc1c(n[nH]c1C)N2`, for which the IC50 runs as follows: (mda-mb-435) 0.01 to 1 µM; (sw480) 0.01 to 1 µM.
For the setting “sw480”, `Cc1[nH]nc2c1N=C(c1ccccc1)c1cc(Br)ccc1N2` had a 50% inhibitory concentration (IC50) of 10 to 30 µM.

Usually IC50 stands for the point on the concentration scale where inhibition reaches its midpoint. High values mean weaker potency in that assay, low ones greater potency in that assay.
